Laboratory results published in US20060205743A1, “Protein kinase inhibitors” (priority 2003, published 2006).

Target: MAPKAP-K2 (Homo sapiens, UniProt P49137)
Assay: MAPKAP-Kinase 2 Assay (33P-ATP peptide phosphorylation, filter plate)
Type: biochemical
Design: key: +: active; ++: more active; +++: very active
Conditions: assays conducted at typically 1-100 μM
Protocol: MAPKAP-Kinase 2 Assay [Compound Preparation]
Compounds are dissolved in DMSO at a concentration of 3 mM and stored in aliquots at −20° C. Compounds in DMSO from these stock aliquots are diluted in 30% DMSO to produce initial working stock solutions of 1 mM and 3 mM. Both of these stock solutions are then subjected to 1:10 serial dilutions in 30% DMSO in order to prepare 3000, 1000, 300, 100, 30, 10, 3, 1, 0.1, 0.01 μM stock solutions. 5 μl of each stock solution is used per 50 μl reaction to give final assay concentrations of 300, 100, 30, 10, 3, 1, 0.3, 0.1, 0.01, 0.001 μM.
The kinase reaction is conducted in a round-bottomed polypropylene 96-well plate. MAPKAP-K2 is diluted to 25 mU/μl in diluent buffer (50 mM Tris/HCl. pH7.5, 0.1 mM EGTA, 0.1% (v/v) β-mercaptoethanol, 1 mg/ml BSA). 5 μl compound or 30% DMSO is added to each well followed by 25 μl substrate cocktail (10 μM ATP, 30 μM peptide (KKLNRTLSVA), 0.5 μCi ^33P-γ-ATP in 50 mM Tris pH7.5, 0.1 mM EGTA, 10 mM Mg-acetate, 0.1% BME). The reaction is initiated with the addition of 20 μl enzyme solution per well or 20 μl diluent buffer without enzyme. The plate is shaken for 10 sec and then left at room temperature for 30 min. The reaction is terminated with 50 μl 150 mM phosphoric acid. 90 μl of the reaction mixture is then transferred into a 96-well P81 filter plate (Millipore) and incubated at room temperature for 5 min. The filter plate is then washed 4 times with 200 μl 75 mM phosphoric acid per well on a plate vacuum manifold (Millipore) and dried in an oven for 2-3 h. Packard MicroScint ‘0’ (30 μl) is then added to each well, the plate is mixed for 30 min and subjected to liquid scintillation counting on a Packard TopCount.
[Interpretation] %Control=(X−B)/(Tot−B)×100 %Inhibition=100−% Control X=cpm of the test compound wells B=cpm of wells without enzyme Tot=cpm of wells with DMSO vehicle only

Sequence of MAPKAP-K2 (P49137 whole entry): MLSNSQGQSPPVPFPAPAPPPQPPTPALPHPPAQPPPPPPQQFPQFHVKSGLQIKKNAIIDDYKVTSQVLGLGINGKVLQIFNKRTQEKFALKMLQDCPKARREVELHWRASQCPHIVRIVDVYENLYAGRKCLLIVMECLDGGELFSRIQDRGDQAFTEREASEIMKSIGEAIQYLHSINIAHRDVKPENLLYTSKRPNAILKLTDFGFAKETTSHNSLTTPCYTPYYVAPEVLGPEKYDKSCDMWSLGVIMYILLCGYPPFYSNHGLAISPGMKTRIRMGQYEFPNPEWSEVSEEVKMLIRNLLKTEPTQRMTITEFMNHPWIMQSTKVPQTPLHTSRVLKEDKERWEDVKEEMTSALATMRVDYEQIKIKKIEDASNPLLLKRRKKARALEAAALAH

| MAPKAP-K2 activity | SMILES |
| --- | --- |
| +++ | Ic1ccc(Nc2cc(NC3CCCNC3)nc3ccnn23)cc1 (centres unmarked) [Compound 106] |
| +++ | NC1CCC(Nc2cc(Nc3ccccc3Br)n3nccc3n2)CC1 (centres unmarked) [Compound 102] |
| ++ | Cc1cccc(C)c1Nc1cc(NC2CCC(N)CC2)nc2ccnn12 (centres unmarked) [Compound 45] |
| ++ | NC1CCC(Nc2cc(Nc3ccccc3C(F)(F)F)n3nccc3n2)CC1 (centres unmarked) [Compound 93] |
| ++ | N[C@H]1CC[C@H](Nc2cc(NCc3ccccn3)n3nccc3n2)CC1 [Compound 90] |
| ++ | Fc1ccc(Nc2cc(NC3CCC(NCCCc4ccccc4)CC3)nc3ccnn23)cc1Cl (centres unmarked) [Compound 124] |
| ++ | Fc1ccc(Nc2cc(NC3CCC(NCCCCc4ccccc4)CC3)nc3ccnn23)cc1Cl (centres unmarked) [Compound 131] |
| +++ | NC1CCC(Nc2cc(Nc3ccc(Br)cc3)n3nccc3n2)CC1 (centres unmarked) [Compound 84] |
| ++ | N[C@H]1CC[C@H](Nc2cc(NCc3ccccc3Cl)n3nccc3n2)CC1 [Compound 71] |
| ++ | CC(C)NC1CCC(Nc2cc(Nc3ccc(F)c(Cl)c3)n3nccc3n2)CC1 (centres unmarked) [Compound 135] |
| +++ | NC1CCC(Nc2cc(Nc3ccc(I)cc3)n3nccc3n2)CC1 (centres unmarked) [Compound 85] |
| +++ | CN1CCC(N[C@H]2CC[C@H](Nc3cc(Nc4ccc(F)c(Cl)c4)n4nccc4n3)CC2)CC1 [Compound 136] |
| +++ | N[C@H]1CC[C@H](Nc2cc(Nc3cccc(Br)c3)n3nccc3n2)CC1 [Compound 83] |
| +++ | CSc1ccc(Nc2cc(N[C@H]3CC[C@H](N)CC3)nc3ccnn23)cc1 [Compound 26] |
| +++ | COc1ccc(Nc2cc(N[C@H]3CC[C@H](N)CC3)nc3ccnn23)cc1Cl [Compound 5] |
| +++ | N[C@H]1CC[C@H](Nc2cc(Nc3ccc(F)cc3)n3nccc3n2)CC1 [Compound 16] |
| +++ | COc1ccc(Nc2cc(NC3CCC(N)CC3)nc3ccnn23)c(F)c1 (centres unmarked) [Compound 112] |
| + | N[C@H]1CC[C@H](Nc2cc(Nc3ccc(F)c(Cl)c3)n3nccc3n2)CC1 [Compound 18] |
| ++ | CN1CCC(Nc2cc(Nc3ccc(F)c(Cl)c3)n3nccc3n2)CC1 [Compound 56] |
| +++ | CCOc1ccc(Nc2cc(NC3CCC(N)CC3)nc3ccnn23)cc1 (centres unmarked) [Compound 35] |

| MAPKAP-K2 activity | SMILES |
| --- | --- |
| +++ | N[C@H]1CC[C@H](Nc2cc(Nc3ccc(C(F)(F)F)cc3)n3nccc3n2)CC1 [Compound 20] |
| +++ | NC1CCC(Nc2cc(Nc3cccc(I)c3)n3nccc3n2)CC1 (centres unmarked) [Compound 40] |
| +++ | CN(C)c1cccc(Nc2cc(N[C@H]3CC[C@H](N)CC3)nc3ccnn23)c1 [Compound 19] |
| +++ | Cc1ccc(Nc2cc(N[C@H]3CC[C@H](N)CC3)nc3ccnn23)cc1C [Compound 77] |
| ++ | Fc1ccc(Nc2cc(NC3CCC(NC4CCCCC4)CC3)nc3ccnn23)cc1Cl (centres unmarked) [Compound 134] |
| +++ | N[C@H]1CC[C@H](Nc2cc(Nc3ccccc3Cl)n3nccc3n2)CC1 [Compound 13] |
| + | CNC(=O)NC1CCC(Nc2cc(Nc3ccc(F)c(Cl)c3)n3nccc3n2)CC1 (centres unmarked) [Compound 38] |
| + | CCC(CC)CNC1CCC(Nc2cc(Nc3ccc(F)c(Cl)c3)n3nccc3n2)CC1 (centres unmarked) [Compound 130] |
| ++ | C#CC(C)(C)Nc1cc(NC2CCC(N)CC2)nc2ccnn12 (centres unmarked) [Compound 111] |
| ++ | COc1ccccc1Nc1cc(NC2CCCNC2)nc2ccnn12 (centres unmarked) [Compound 96] |
| ++ | Fc1ccc(Nc2cc(NC3CCC(NCc4ccsc4)CC3)nc3ccnn23)cc1Cl (centres unmarked) [Compound 129] |
| + | Fc1ccc(Nc2cc(N[C@H]3CC[C@H](NC4CCC(c5ccccc5)CC4)CC3)nc3ccnn23)cc1Cl (some centres unmarked) [Compound 138] |
| + | Fc1ccc(Nc2cc(NC3CCC(NCC4CCCCC4)CC3)nc3ccnn23)cc1Cl (centres unmarked) [Compound 126] |
| + | NC1CCN(c2cc(Nc3ccc(F)c(Cl)c3)n3nccc3n2)CC1 [Compound 95] |
| +++ | COc1cccc(Nc2cc(N[C@H]3CC[C@H](N)CC3)nc3ccnn23)c1 [Compound 62] |
| + | NCCCNc1cc(Nc2ccc(F)c(Cl)c2)n2nccc2n1 [Compound 94] |
| +++ | CCOc1cccc(Nc2cc(NC3CCCNC3)nc3ccnn23)c1 (centres unmarked) [Compound 105] |
| ++ | NC1CCC(Nc2cc(NCc3ccc(Cl)c(Cl)c3)n3nccc3n2)CC1 (centres unmarked) [Compound 39] |
| + | CC(Nc1cc(N[C@H]2CC[C@H](N)CC2)nc2ccnn12)c1ccc(F)cc1 (some centres unmarked) [Compound 24] |
| +++ | Fc1ccc(Nc2cc(NC3CCCNC3)nc3ccnn23)cc1Cl (centres unmarked) [Compound 74] |

| MAPKAP-K2 activity | SMILES |
| --- | --- |
| +++ | N[C@H]1CC[C@H](Nc2cc(Nc3cccc(Cl)c3)n3nccc3n2)CC1 [Compound 11] |
| ++ | CCCCCNC1CCC(Nc2cc(Nc3ccc(F)c(Cl)c3)n3nccc3n2)CC1 (centres unmarked) [Compound 125] |
| ++ | NC1CCC(Nc2cc(Nc3ccc4c(c3)OC(F)(F)O4)n3nccc3n2)CC1 (centres unmarked) [Compound 55] |
| +++ | N[C@H]1CC[C@H](Nc2cc(Nc3ccc(Cl)c(Cl)c3)n3nccc3n2)CC1 [Compound 3] |
| +++ | N[C@H]1CC[C@H](Nc2cc(Nc3ccc(F)c(Cl)c3)n3nccc3n2)CC1 [Compound 2] |
| +++ | CCCCOc1ccc(Nc2cc(NC3CCC(N)CC3)nc3ccnn23)cc1 (centres unmarked) [Compound 104] |
| +++ | NC1CCC(Nc2cc(Nc3ccc(OCc4ccccc4)cc3)n3nccc3n2)CC1 (centres unmarked) [Compound 52] |
| + | Fc1ccc(Nc2cc(N3CCNCC3)nc3ccnn23)cc1Cl [Compound 81] |
| ++ | N#C/N=C(\N)NC1CCC(Nc2cc(Nc3ccc(F)c(Cl)c3)n3nccc3n2)CC1 (centres unmarked) [Compound 79] |
| +++ | Cc1ccc(Nc2cc(N[C@H]3CC[C@H](N)CC3)nc3ccnn23)cc1Cl [Compound 6] |
| ++ | CCOc1ccccc1Nc1cc(NC2CCC(N)CC2)nc2ccnn12 (centres unmarked) [Compound 54] |
| +++ | Cc1ccccc1Nc1cc(N[C@H]2CC[C@H](N)CC2)nc2ccnn12 [Compound 9] |
| +++ | N[C@H]1CC[C@H](Nc2cc(Nc3ccc(Cl)cc3Cl)n3nccc3n2)CC1 [Compound 60] |
| + | CN1CCN(Nc2cc(Nc3ccc(F)c(Cl)c3)n3nccc3n2)CC1 [Compound 50] |
| +++ | Ic1cccc(Nc2cc(NC3CCCNC3)nc3ccnn23)c1 (centres unmarked) [Compound 140] |
| ++ | N[C@H]1CC[C@H](Nc2cc(Nc3ccc4c(c3)OC(F)(F)O4)n3nccc3n2)CC1 [Compound 4] |
| +++ | N[C@H]1CC[C@H](Nc2cc(Nc3ccc(Oc4ccccc4)cc3)n3nccc3n2)CC1 [Compound 21] |
| ++ | NC1CCC(Nc2cc(NCc3cccc(I)c3)n3nccc3n2)CC1 (centres unmarked) [Compound 53] |
| +++ | Cc1cccc(Nc2cc(N[C@H]3CC[C@H](N)CC3)nc3ccnn23)c1C [Compound 76] |
